Data from US20250144067A1, “PERSONALIZED STARVATION THERAPY FOR CANCER” (Faeth Therapeutics, Inc., priority 2021, published 2025).
Counter-ions that a name gives are not always drawn. Like-named read-outs stand apart in the source and are kept apart here.

Experiments:
[1] = tested on: NCI-H292 lung cancer cells; assay: FDA drug screening, complete media vs cholesterol-free media without statin (TABLE 1); assay type: cell-based, human
[2] = tested on: NCI-H292 lung cancer cells; assay: FDA drug screening, complete media vs cholesterol-free media with simvastatin (TABLE 2); assay type: cell-based, human
[3] = Complete minus Cholesterol-free, greater than 0 enhanced anti-cancer activity, about 0 neutral, below 0 antagonists
[4] = NCI-H292 cells in cholesterol-free media without statin
[5] = NCI-H292 cells in complete media
[6] = NCI-H292 cells, FDA drug library screen, cholesterol-free media with simvastatin 0.04 μM
[7] = NCI-H292 cells, FDA drug library screen, complete media
[8] = complete media minus cholesterol-free media + simvastatin, >0 enhanced anti-cancer activity, about 0 neutral, <0 antagonist
[9] = Complete minus Cholesterol-free, >0 enhanced anti-cancer activity, about 0 neutral, <0 antagonist
[10] = NCI-H292 cells, cholesterol-free media without statin
[11] = complete media vs cholesterol-free media + simvastatin (0.04 μM), >0 enhanced anti-cancer activity, about 0 neutral, <0 antagonist
[12] = Complete minus Cholesterol-free, […]
[13] = NCI-H292 cells, FDA drug library screen, cholesterol-free media without statin
[14] = NCI-H292 cells, cholesterol-free media with simvastatin 0.04 μM, FDA drug library screen (TABLE 2)
[15] = NCI-H292 cells, complete media, FDA drug library screen (TABLE 2)
[16] = complete vs cholesterol-free media, greater than 0 enhanced anti-cancer activity, about 0 neutral, below 0 antagonists
[17] = complete media minus cholesterol-free media + simvastatin (0.04 μM), >0 enhanced anti-cancer activity, about 0 neutral, <0 antagonist
[18] = NCI-H292 cells, cholesterol-free media without statin, FDA drug library screen
[19] = NCI-H292 cells, complete media, FDA drug library screen
[20] = complete media vs cholesterol-free media + simvastatin (0.04 μM), […]
[21] = NCI-H292 cells, cholesterol-free media with simvastatin 0.04 μM, cell growth value in FDA drug screen
[22] = NCI-H292 cells, complete media, cell growth value in FDA drug screen
[23] = complete vs cholesterol-free media, >0 enhanced anti-cancer activity, about 0 neutral, <0 antagonist
[24] = complete vs cholesterol-free media, […]
[25] = NCI-H292 cells, drug in cholesterol-free media with simvastatin 0.04 μM
[26] = NCI-H292 cells, drug in complete media

CCN(c1cc(-c2ccc(CN3CCOCC3)cc2)cc(C(=O)NCc2c(C)cc(C)[nH]c2=O)c1C)C1CCOCC1 [Tazemetostat (hydrobromide)]
Difference [1, 3]: −0.47
Cholesterol-free [1, 4]: 1.683
Complete [1, 5]: 1.209
Cholesterol-free media + simvastatin (0.04 μM) [2, 6]: 0.8785
Complete Media [2, 7]: 1.469
Difference [2, 8]: 0.59

C[C@@H](O)[C@H]1C(=O)N2C(C(=O)O)=C(S[C@@H]3CN[C@H](CNS(N)(=O)=O)C3)[C@H](C)[C@H]12 [Doripenem (monohydrate)]
Difference [1, 9]: −0.25
Cholesterol-free [1, 10]: 1.011
Complete ([1]; NCI-H292 cells, complete media): 0.7618
Cholesterol-free media + simvastatin (0.04 μM) [2, 6]: 0.9911
Complete Media [2, 7]: 0.8363
Difference [2, 11]: −0.15

Nc1nc(F)nc2c1ncn2[C@@H]1O[C@H](CO)[C@@H](O)[C@@H]1O [Fludarabine]
Difference [1, 12]: −0.15
Cholesterol-free [1, 13]: 1.174
Complete [1, 7]: 1.022
Cholesterol-free media + simvastatin (0.04 μM) [2, 14]: 1.255
Complete Media [2, 15]: 1.187
Difference ([2]; complete media minus cholesterol-free media + simvastatin (0.04 μM), […]): −0.07

C=CC(=O)N1CCC[C@@H](n2nc(-c3ccc(Oc4ccccc4)cc3)c3c(N)ncnc32)C1 (racemic) [Ibrutinib (Racemate)]
Cholesterol-free [1, 10]: 1.242
Complete ([1]; NCI-H292 cells, complete media): 0.9233
Difference [1, 16]: −0.32
Cholesterol-free media + simvastatin (0.04 μM) [2, 14]: 0.346
Complete Media [2, 15]: 0.2858
Difference [2, 17]: −0.06

CC(=O)Oc1ccc(C(c2ccc(OC(C)=O)cc2)c2ccccn2)cc1 [Bisacodyl]
Difference [1, 9]: −0.04
Cholesterol-free [1, 18]: 0.799
Complete [1, 19]: 0.7553
Cholesterol-free media + simvastatin (0.04 μM) [2, 14]: 0.934
Complete Media [2, 15]: 0.9483
Difference [2, 17]: 0.01

CC(=O)O[C@H]1C[C@@H]2CC[C@@H]3[C@H](CC[C@@]4(C)[C@H]3C[C@H]([N+]3(C)CCCCC3)[C@@H]4OC(C)=O)[C@@]2(C)C[C@@H]1N1CCCCC1.[Br-] [Vecuronium (bromide)]
Cholesterol-free [1]: 1.045
Complete [1]: 0.9438
Difference [1]: −0.10
Cholesterol-free media + simvastatin (0.04 μM) [2]: 0.9802
Complete Media [2]: 0.9534
Difference [2]: −0.03

Vinblastine (sulfate)
Difference [1, 12]: 0.04
Cholesterol-free [1, 18]: 0.05138
Complete [1, 19]: 0.09114
Cholesterol-free media + simvastatin (0.04 μM) [2, 6]: 0.2181
Complete Media [2, 7]: 0.1119
Difference [2, 20]: −0.11

CCCCC[C@H](O)/C=C/[C@H]1[C@H](O)CC(=O)[C@@H]1C/C=C\CCCC(=O)O [Prostaglandin E2]
Difference [1, 3]: −0.61
Cholesterol-free [1, 4]: 1.546
Complete [1, 5]: 0.9346
Cholesterol-free media + simvastatin (0.04 μM) [2, 21]: 0.8899
Complete Media [2, 22]: 0.9562
Difference [2, 8]: 0.07

CC(C)NCC(O)c1ccccc1Cl (centres unmarked) [Clorprenaline hydrochloride]
Cholesterol-free [1, 18]: 0.6182
Complete [1, 19]: 1.062
Difference [1, 23]: 0.44
Cholesterol-free media + simvastatin (0.04 μM) [2, 6]: 0.6832
Complete Media [2, 7]: 0.8199
Difference [2, 8]: 0.14

Escitalopram (oxalate)
Difference [1, 9]: −0.01
Cholesterol-free [1, 18]: 1.284
Complete [1, 19]: 1.269
Cholesterol-free media + simvastatin (0.04 μM) [2, 21]: 0.9976
Difference [2, 8]: 0.04

CC1(C)O[C@@H]2[C@@H](CO[C@@]3(COS(N)(=O)=O)OC(C)(C)O[C@@H]23)O1 [Topiramate]
Cholesterol-free [1, 10]: 1.406
Complete ([1]; NCI-H292 cells, complete media): 0.9724
Difference [1, 16]: −0.43
Cholesterol-free media + simvastatin (0.04 μM) [2, 21]: 1.666
Complete Media [2, 22]: 1.706
Difference [2, 8]: 0.04

Colistin (sulfate)
Difference [1, 24]: 0.08
Cholesterol-free media + simvastatin (0.04 μM) [2, 25]: 1.189
Complete Media [2, 26]: 0.9801
Difference [2, 20]: −0.21

COc1cc2c3cc1Oc1c(OC)c(OC)cc4c1[C@@H](Cc1ccc(O)c(c1)Oc1ccc(cc1)C[C@@H]3N(C)CC2)N(C)CC4 [berbamine, reference compound]
Cholesterol-free ([1]; NCI-H292 cells, cholesterol-free media without statin, listed as Berbamine): 1.275
Complete ([1]; NCI-H292 cells, complete media, listed as Berbamine): 0.9674
Difference ([1]; complete vs cholesterol-free media, […], listed as Berbamine): −0.31
Cholesterol-free media + simvastatin (0.04 μM) ([2]; NCI-H292 cells, FDA drug library screen, cholesterol-free media with simvastatin 0.04 μM, listed as Berbamine): 0.4924
Complete Media ([2]; NCI-H292 cells, FDA drug library screen, complete media, listed as Berbamine): 1.667
Difference ([2]; complete media minus cholesterol-free media + simvastatin, […], listed as Berbamine): 1.17

O=C(O)/C=C/c1ccc(Cn2ccnc2)cc1 [Ozagrel (hydrochloride)]
Cholesterol-free [1, 18]: 0.9304
Complete [1, 19]: 1.021
Difference [1, 23]: 0.09
Cholesterol-free media + simvastatin (0.04 μM) [2, 6]: 1.247
Complete Media [2, 7]: 1.131
Difference [2, 11]: −0.12

CN1CCN(c2cc3c(nn2)Oc2ccccc2N3C)CC1.Cl.Cl.O [Azaphen (dihydrochloride monohydrate)]
Cholesterol-free [1, 10]: 1.204
Complete ([1]; NCI-H292 cells, complete media): 0.7783
Difference [1, 24]: −0.43
Cholesterol-free media + simvastatin (0.04 μM) [2, 6]: 1.02
Complete Media [2, 7]: 0.9251
Difference [2, 20]: −0.09

OB1OCc2cc(F)ccc21 [Tavaborole]
Difference [1, 9]: −0.04
Cholesterol-free [1, 18]: 1.018
Complete [1, 19]: 0.9789
Cholesterol-free media + simvastatin (0.04 μM) [2, 14]: 1.181
Complete Media [2, 15]: 1.117
Difference [2, 17]: −0.06

O=C(O)CCC(=O)Nc1ccc(S(=O)(=O)Nc2nccs2)cc1 [Succinylsulfathiazole]
Difference [1, 9]: 0.03
Cholesterol-free [1, 18]: 0.852
Complete [1, 19]: 0.8836
Cholesterol-free media + simvastatin (0.04 μM) [2, 14]: 1.231
Complete Media [2, 15]: 1.191
Difference [2, 17]: −0.04

CN(C)CCC=C1c2ccccc2COc2ccccc21 [Doxepin (Hydrochloride)]
Difference ([1]; Complete minus Cholesterol-free, greater than 0 enhanced anti-cancer activity, about 0 neutral, below 0 antagonist): −0.11
Cholesterol-free [1, 13]: 1.23
Complete [1, 7]: 1.122
Cholesterol-free media + simvastatin (0.04 μM) [2, 6]: 0.8618
Complete Media [2, 7]: 1.158
Difference [2, 8]: 0.30

COCCOC(=O)C1=C(C)NC(C)=C(C(=O)OC/C=C/c2ccccc2)C1c1cccc([N+](=O)[O-])c1 (centres unmarked) [Cilnidipine]
Cholesterol-free [1, 18]: 1.441
Complete [1, 19]: 1.574
Difference [1, 23]: 0.13
Cholesterol-free media + simvastatin (0.04 μM) [2, 25]: 0.9073
Complete Media [2, 26]: 0.7251
Difference [2, 11]: −0.18

COc1cc2nc(N3CCN(C(=O)C4CCCO4)CC3)nc(N)c2cc1OC (centres unmarked) [Terazosin (hydrochloride dihydrate)]
Difference [1, 9]: −0.06
Cholesterol-free [1, 18]: 0.8804
Complete [1, 19]: 0.821
Cholesterol-free media + simvastatin (0.04 μM) [2, 14]: 1.029
Complete Media [2, 15]: 0.9806
Difference [2, 17]: −0.05

CN1CCC(OC(c2ccccc2)c2ccccc2)CC1 [Diphenylpyraline (hydrochloride)]
Difference [1, 9]: −0.22
Cholesterol-free [1, 10]: 0.9623
Complete ([1]; NCI-H292 cells, complete media): 0.7446
Cholesterol-free media + simvastatin (0.04 μM) [2, 6]: 0.641
Complete Media [2, 7]: 1.367
Difference [2, 8]: 0.73

CCC(=O)O[C@]1(C(=O)SCF)[C@H](C)C[C@H]2[C@@H]3C[C@H](F)C4=CC(=O)C=C[C@]4(C)[C@@]3(F)[C@@H](O)C[C@@]21C [Fluticasone (propionate)]
Difference [1, 3]: −0.60
Cholesterol-free [1, 4]: 1.466
Complete [1, 5]: 0.8611
Cholesterol-free media + simvastatin (0.04 μM) [2, 6]: 0.7423
Complete Media [2, 7]: 0.6072
Difference [2, 11]: −0.14

CC(=O)OCC(=O)[C@@]1(O)[C@H](C)C[C@H]2[C@@H]3CCC4=CC(=O)C=C[C@]4(C)[C@@]3(F)[C@@H](O)C[C@@]21C [Dexamethasone acetate]
Difference [1, 9]: −0.04
Cholesterol-free [1, 18]: 0.6815
Complete [1, 19]: 0.6403
Cholesterol-free media + simvastatin (0.04 μM) [2, 6]: 0.9553
Complete Media [2, 7]: 0.8728
Difference [2, 11]: −0.08

CCOC(=O)[C@H](CCc1ccccc1)N[C@@H](C)C(=O)N1Cc2ccccc2C[C@H]1C(=O)O [Quinapril (hydrochloride)]
Cholesterol-free [1, 18]: 0.6191
Complete [1, 19]: 0.9945
Difference [1, 23]: 0.38
Cholesterol-free media + simvastatin (0.04 μM) ([2]; NCI-H292 cells, FDA library drug in cholesterol-free media with simvastatin 0.04 μM): 1.23
Complete Media ([2]; NCI-H292 cells, FDA library drug in complete media): 0.862
Difference [2, 11]: −0.37

C[C@H]1O[C@H](OC2[C@@H](O)[C@@H](O)C(O)[C@H](O)[C@H]2O)[C@@H](N)C[C@@H]1N=C(N)C(=O)O.Cl.O (some centres unmarked) [Kasugamycin (hydrochloride hydrate)]
Difference [1, 12]: −0.06
Cholesterol-free [1, 18]: 1.256
Complete [1, 19]: 1.194
Cholesterol-free media + simvastatin (0.04 μM) [2, 6]: 1.288
Difference [2, 20]: −0.14

CCC(=O)O[C@]1(C(=O)CCl)[C@@H](C)C[C@H]2[C@@H]3CCC4=CC(=O)C=C[C@]4(C)[C@@]3(F)[C@@H](O)C[C@@]21C [Clobetasol propionate]
Difference [1, 9]: −0.20
Cholesterol-free [1, 10]: 1.481
Complete ([1]; NCI-H292 cells, complete media): 1.28
Cholesterol-free media + simvastatin (0.04 μM) [2, 21]: 0.7256
Complete Media [2, 22]: 0.7474
Difference [2, 8]: 0.02
